Experimental data published in patent publication US20100292257A1, “USES OF 2-[PIPERIDINYL] METHYL-2, 3-DIHYDROIMIDAZO [1,2-C] QUINAZOLIN-5 (6H)-ONE FOR PROVIDING AN ANALGESIC EFFECT, ANTI-ALLERGIC EFFECT AND HISTAMINE H1 RECEPTOR ANTAGONISM EFFECT” (Medical and Pharmaceutical Industry Technology and …, priority 2007, published 2010).
Each block holds one compound with its values, some of them ahead of it.

How the values were obtained:
[1] = tested on: CD-1 (Crl.) derived male mice; assay: Acetic acid-induced writhing assay; assay type: in vivo; conditions: 1 h before acetic acid 0.5%, 20 ml/kg i.p., writhes 5th-10th min, vehicle 12.4 ± 1.5
Method: Vehicle (2% Tween 80, 10 ml/kg), PDC-130 or aspirin (100 mg/kg) was administered orally to groups of eight CD-1 (Crl.) derived male mice, weighing 24±2 g, 1 hour before intraperitoneal injection of acetic acid (0.5%, 20 ml/kg). The number of writhes of animals was observed and recorded during a period of time from the 5th to the 10th minutes period after acetic acid administration. [Reference: Inoue. K., Motonaga, A. and Nishimura, T. Mechanism of antiinflammatory action of etodolac. Arzneim-Forsch./Drug Res. 41: 235-239, 1991.]

[2] = tested on: CD-1 (Crl.) derived male mice; assay: Phenylquinone (PQ)-induced writhing assay; assay type: in vivo; conditions: 1 h before phenylquinone 2 mg/kg i.p., writhes 5th-10th min, vehicle 15.1 ± 1.4
Method: Vehicle (2% Tween 80, 10 ml/kg), PDC-130 or aspirin was orally administered to a group of eight CD-1 (Crl.) derived male mice weighing 24±2 g. One hour later, phenylquinone (2 mg/kg) was given by intraperitoneal injection. […] of animals was observed and recorded during a period of time from the 5th to 10th minutes after PQ administration, [Reference: Siegmund, E, Cadmus, R. and Lu, G. A method for evaluating both non-narcotic and narcotic analgesics. Proc. Soc. Exp. Biol. Med. 952: 729-731, 1957.]

[3] = tested on: Wistar derived male rats; assay: Passive cutaneous anaphylaxis; assay type: in vivo; conditions: for Total Score: wheal diameter score, group of five rats, vehicle 50
Method: A group of five Wistar derived male rats weighing 80±20 g was passively sensitized 16 hours earlier by intradermal injection of reaginic antiovalbumin serum (0.5 ml) on two spots of the dorsal surface. […] Within one hour after administration of the above substances, the animals were challenged intravenously with a mixture of ovalbumin (1 mg) and Evans Blue dye (5 mg) and sacrificed 30 minutes later. The two wheal diameters were measured for each animal and scored as follows: • Score 0: diameter<0.05 cm • Score 1: diameter 0.05-0.20 cm • Score 2: diameter 0.2-0.4 cm • Score 3: diameter 0.4-0.6 cm • Score 4: diameter 0.6-0.8 cm • Score 5: diameter>0.8 cm
Maximum possible score for each animal total 5×2=10. [Reference: Goose, J. and Blair, A. M. J. N. Passive cutaneous anaphylaxis in the rat, induced with two homologous reagin-like antibodies and its specific inhibition with disodium chromoglycate. Immunology 16: 749-760, 1969.]
(Total score of vehicle group−Total score of tested group)/(Total score of vehicle group)×100%

[4] = molecular target: T1, Histamine H1 Receptor (Rattus norvegicus, UniProt P31390); assay: Histamine H1 antagonism (histamine-induced wheal); assay type: in vivo, rats; conditions: for Total Score: 1 h before intradermal histamine, wheal diameter score, group of five rats, vehicle 50; for Inhibition (%): inhibition of histamine-induced blue colored wheal vs vehicle
T1 construct: immediately challenged with two intradermal injection of histamine; from tissue; host or cells: living Wistar derived male rats (skin, intradermal histamine challenge)
T1 sequence (P31390 whole entry): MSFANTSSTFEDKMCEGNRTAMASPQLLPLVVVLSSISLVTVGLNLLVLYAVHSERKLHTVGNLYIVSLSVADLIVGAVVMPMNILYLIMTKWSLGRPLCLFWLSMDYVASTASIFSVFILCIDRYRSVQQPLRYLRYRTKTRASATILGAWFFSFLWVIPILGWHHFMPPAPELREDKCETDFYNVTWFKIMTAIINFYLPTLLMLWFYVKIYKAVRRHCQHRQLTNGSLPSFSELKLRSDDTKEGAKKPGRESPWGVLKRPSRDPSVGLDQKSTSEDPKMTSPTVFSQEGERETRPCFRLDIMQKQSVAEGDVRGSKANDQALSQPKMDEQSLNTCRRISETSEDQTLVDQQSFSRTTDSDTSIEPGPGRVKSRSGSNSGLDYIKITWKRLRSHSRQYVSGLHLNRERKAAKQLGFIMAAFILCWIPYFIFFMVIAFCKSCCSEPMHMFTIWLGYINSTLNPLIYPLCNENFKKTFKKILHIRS
Method: After one hour, animals were injected with Evans Blue dye (5 mg/0.5 ml/rat) intravenously and immediately challenged with two intradermal injection of histamine (each 30 μg/0.05 ml). The animals were sacrificed 30 minutes later. The two wheal diameters were then measured for each animal and scored as follows: • Score 0: diameter<0.05 cm • Score 1: diameter 0.05-0.20 cm • Score 2: diameter 0.2-0.4 cm • Score 3: diameter 0.4-0.6 cm • Score 4: diameter 0.6-0.8 cm • Score 5: diameter>0.8 cm
Maximum possible score for each animal total 5×2=10.

SMILES: CC(=O)Oc1ccccc1C(=O)O [Aspirin, aspirin, reference compound]
Number of Writhing ([1]; 100 mg/kg orally): 2.4 ± 1.0
Number of Writhing ([2]; 100 mg/kg orally): 5.5 ± 1.5

SMILES: CN1CCC(=C2c3ccccc3C=Cc3ccccc32)CC1 [Cyproheptadine, cyproheptadine, reference compound]
Total Score ([3]; 1 mg/kg orally): 14
inhibition at 1 mg/kg ([3]; Rattus norvegicus, po, 1 mg/kg orally, inhibition of passive cutaneous anaphylaxis blue colored wheal vs vehicle): 72%

Total Score ([4]; 3 mg/kg orally): 20
Inhibition (%) ([4]; 3 mg/kg orally): 60%
Total Score ([4]; 10 mg/kg orally): 14
Inhibition (%) ([4]; 10 mg/kg orally): 72%
Total Score ([4]; 30 mg/kg orally): 10
Inhibition (%) ([4]; 30 mg/kg orally): 80%
SMILES: O=C(c1ccc(F)cc1)C1CCN(CC2CN3C(=O)Nc4ccccc4C3=N2)CC1 (stereo not drawn) [PDC-130, 2-[1-(4-p-fluorobenzoyl)piperidinyl]methyl-2,3-dihydroimidazo[1,2-c]-quinazolin-5(6H)-one]
Number of Writhing ([1]; 0.03 mg/kg orally): 12.1 ± 1.6
Number of Writhing ([1]; 0.1 mg/kg orally): 5.0 ± 1.0
Number of Writhing ([1]; 0.3 mg/kg orally): 5.3 ± 1.1
Number of Writhing ([1]; 1 mg/kg orally): 2.1 ± 1.1
Inhibition (%) ([3]; 3 mg/kg orally, inhibition of passive cutaneous anaphylaxis blue colored wheal vs vehicle): 68%
Total Score ([3]; 3 mg/kg orally): 16
Inhibition (%) ([3]; 10 mg/kg orally, inhibition of passive cutaneous anaphylaxis blue colored wheal vs vehicle): 80%
Total Score ([3]; 10 mg/kg orally): 10
Inhibition (%) ([3]; 30 mg/kg orally, inhibition of passive cutaneous anaphylaxis blue colored wheal vs vehicle): 80%
Total Score ([3]; 30 mg/kg orally): 10
Number of Writhing ([2]; 0.03 mg/kg orally): 12.1 ± 1.6
Number of Writhing ([2]; 0.1 mg/kg orally): 6.4 ± 1.6
Number of Writhing ([2]; 0.3 mg/kg orally): 5.3 ± 1.7
Number of Writhing ([2]; 1 mg/kg orally): 2.8 ± 1.2
